Assay [1] has as its system HeLa cells. As to the kind of experiment: Staining of lipid droplets with LipidTox Green. Type of assay: cell-based, human. Conditions: DAPT 10 μM alone or with BI 100 nM. As for the experimental part: (§1) Staining of lipid droplets was performed using HCS LipidTox™ Deep Green neutral lipid stain (Invitrogen H34475) according to the manufacturer's instructions. Lipid droplet staining was quantified using ImageJ. The different values represent the product of the intensity and the area covered by the fluorescent signal above background in every cell examined.

For assay [2], the system named is SH-SY5Y cells. Put plainly: Staining of lipid droplets with LipidTox Green. The class given is cell-based, human. As to conditions: DAPT 10 μM alone or with BI 100 nM.
In assay [3] the test system is PS-DKO cells. Put plainly: Analysis of ER-mitochondrial apposition (colocalization of ER and mitochondrial markers). The class given is cell-based, mouse. As to conditions: 100 nM BI, 12-16 h. As for the experimental part: Interactions between mitochondria and ER were performed as described (5).
Cells under were co-transfected with GFP-Sec61-β (Addgene plasmid #15108) and DsRed-Mito (Clontech, #632421) at a 1:1 ratio, using Lipofectamine 2000 (Invitrogen, #11668-027) in serum-free DMEM. Twelve hours post-transfection, cells were analyzed as described (8).
Cells under were co-transfected with GFP-Sec61-β (Addgene plasmid #15108) and DsRed2-Mito (Clontech, #632421) at a 1:1 ratio, using Lipofectamine 2000 (Invitrogen, #11668-027) in serum-free DMEM. Twelve hours post-transfection, cells were analyzed as described (Guardia-Laguarta et al., 2014).
Cells under were co-transfected with GFP-Sec61-β (Addgene plasmid #15108) and DsRed2-Mito (Clontech, #632421) at a 1:1 ratio, using Lipofectamine 2000 (Invitrogen, #11668-027) in serum-free DMEM. Twelve hours post-transfection, cells were analyzed as described (Guardia-Laguarta et al, 2014).

Assay [4] concerns cortical neurons and astrocytes from PS1-KI M146V mice. Put plainly: Staining of lipid droplets with LipidTox Green. Type of assay: cell-based, mouse. Conditions: 100 nM BI. As for the experimental part: (§2) Quantification of total cholesterol and cholesteryl esters was performed using the Cholesterol/Cholesteryl Ester Quantitation kit from Calbiochem (428901). Staining of lipid droplets Staining of lipid droplets was performed using HCS LipidTox™ Deep Green neutral lipid stain (Invitrogen H34475) according to the manufacturer's instructions. Lipid droplet staining was quantified using ImageJ. The different values represent the product of the intensity and the area covered by the fluorescent signal above background in every cell examined.
as §1

The test system of assay [5] is PS-DKO cells. Put plainly: Staining of lipid droplets with LipidTox Green. As to conditions: BI 100 nM, desipramine 10 μM, GW4869 5 μM, 12-16 h, Gleevec 10 μM. Type of assay: cell-based, mouse. The method, then: as §2, §1
Assay [6] relates to acid (aSMase) and neutral (nSMase) sphingomyelinases. Put plainly: Analysis of sphingomyelinase activity. The class given is cell-based, mouse. Conditions: PS-DKO MEFs; BI 100 nM; Aβ40:Aβ42 10:1, 6 ng/ml total. The method, then: One hundred μg of protein were assayed in 100 mM of the appropriate buffer (Tris/glycine for pH 7.0-9.0 and sodium acetate for pH 4.0-5.0), 1.55 mM Triton X-100, 0.025% BSA, 1 mM MgCl2, and 400 μM bovine brain sphingomyelin spiked with 22000 dpm of [3H]-bovine sphingomyelin ([…]). Reactions were carried out in borosilicate glass culture tubes at 37° C., overnight, followed by quenching with 1.2 ml of ice-cold 10% trichloroacetic acid, incubation at 4° C. for 30 min, and centrifugation at 2000 rpm at 4° C. for 20 min. One ml of supernatant was transferred to clean tubes, 1 ml of ether was added, the mixture vortexed, and centrifuged at 2000 rpm for 5 min. Eight hundred μl of the bottom phase was transferred to scintillation vials, 5 ml of Scintiverse BD (Fisher Scientific, Fair Lawn, N.J.) was added, and samples were counted. […]
Reactions were carried out in borosilicate glass culture tubes at 37° C., overnight, followed by quenching with 1.2 ml of ice-cold 10% trichloroacetic acid, incubation at 4° C. for 30 min, and centrifugation at 2000 rpm at 4° C. for 20 min. […] Eight hundred μl of the bottom phase was transferred to scintillation vials, 5 ml of Scintiverse BD (Fisher Scientific, Fair Lawn, N.J.) was added, and samples were counted. […]

This note sets out measurements from patent US11266626B2, “Reduction of ER-MAM-localized APP-C99 and methods of treating alzheimer's disease” (THE TRUSTEES OF COLUMBIA UNIVERSITY IN THE CITY OF NEW YORK, priority 2015, dated 2022).

Molecules are shown by their SMILES. Entries after “also recorded” stand apart in the source; their conditions may differ.

Regarding `C[C@H](NC(=O)Cc1cc(F)cc(F)c1)C(=O)N[C@H](C(=O)OC(C)(C)C)c1ccccc1` [DAPT], the “accumulation of lipid droplets (LDs)” value in assay [1] and in assay [2] was “LDs also accumulated; also recorded: Lipid droplets also accumulated” each time.

Take `C[C@@H](NC(=O)c1cc(C(=O)N[C@@H](Cc2ccccc2)[C@H](O)CNC2CC2)cc(N(C)S(C)(=O)=O)c1)c1ccccc1` [BI, β-secretase inhibitor IV]: the “degree of ER-mitochondrial co-localization (apposition)” value in assay [3] was “reduced the degree of ER-mitochondrial co-localization significantly; also recorded: rescued the upregulation of ER-mitochondria apposition”. Also, the “number of lipid droplets (LDs)” value in assay [4] and in assay [5] was “reduced the number of LDs” throughout. For the same molecule, in assay [6], the “acid (aSMase) and neutral (nSMase) sphingomyelinase activity / sphingolipid turnover” value is “reduced significantly; also recorded: attenuation of sphingolipid turnover; also recorded: attenuation of sphingolipid synthesis and hydrolysis by sphingomyelinases”.
